# Assay results taken from ChEMBL document CHEMBL1143058, “Evaluation of a diverse set of potential P1 carboxylic acid bioisosteres in hepatitis C virus NS3 protease inhibitors” (Bioorg Med Chem, 2007).
# What was measured:
# [1] = Inhibition of HCV NS3 protease in presence of pH 8.0 buffer; parameters: species or system Hepacivirus hominis
# [2] = Inhibition of HCV NS3 protease in presence of pH 6.0 buffer; parameters: species or system Hepacivirus hominis
# Hepatitis C virus = experiment: Inhibition of HCV by subgenomic HCV replication assay; format: functional, organism-based, Hepacivirus hominis
# [3] = Inhibition of HCV NS3 protease in presence of pH 7.5 HEPES buffer; parameters: species or system Hepacivirus hominis
# [4] = Inhibition of HCV NS3 protease in presence of pH 7.0 buffer; parameters: species or system Hepacivirus hominis
Structure (SMILES),Ki [1],Ki [2],EC50 (Hepatitis C virus),Ki [3],Ki [4]
C=C[C@@H]1C[C@]1(NC(=O)[C@@H]1C[C@@H](Oc2cc(-c3ccccc3)nc3cc(OC)ccc23)CN1C(=O)[C@@H](NC(=O)OC(C)(C)C)C(C)(C)C)C(=O)NNc1ccccc1,287 nM,28 nM,> 10000 nM,560 nM,113 nM
C=C[C@@H]1C[C@]1(NC(=O)[C@@H]1C[C@@H](Oc2cc(-c3ccccc3)nc3cc(OC)ccc23)CN1C(=O)[C@@H](NC(=O)OC(C)(C)C)C(C)(C)C)C(=O)NNCc1ccccc1,–,–,> 10000 nM,1100 nM,–
C=C[C@@H]1C[C@]1(NC(=O)[C@@H]1C[C@@H](Oc2cc(-c3ccccc3)nc3cc(OC)ccc23)CN1C(=O)[C@@H](NC(=O)OC(C)(C)C)C(C)(C)C)C(=O)Nc1nccs1,343 nM,7.7 nM,> 10000 nM,821 nM,294 nM
C=C[C@@H]1C[C@]1(NC(=O)[C@@H]1C[C@@H](Oc2cc(-c3ccccc3)nc3cc(OC)ccc23)CN1C(=O)[C@@H](NC(=O)OC(C)(C)C)C(C)(C)C)c1nnn[nH]1,–,–,2800 nM,214 nM,–
C=C[C@@H]1C[C@]1(NC(=O)[C@@H]1C[C@@H](Oc2cc(-c3ccccc3)nc3cc(OC)ccc23)CN1C(=O)[C@@H](NC(=O)OC(C)(C)C)C(C)(C)C)C(=O)N[S+]([O-])c1ccc(C)cc1 (stereo not given in full),–,–,1800 nM,9 nM,–
C=C[C@@H]1C[C@]1(NC(=O)[C@@H]1C[C@@H](Oc2cc(-c3ccccc3)nc3cc(OC)ccc23)CN1C(=O)[C@@H](NC(=O)OC(C)(C)C)C(C)(C)C)C(=O)NNS(=O)(=O)c1ccccc1,–,–,1600 nM,140 nM,–
C=C[C@@H]1C[C@]1(NC(=O)[C@@H]1C[C@@H](Oc2cc(-c3ccccc3)nc3cc(OC)ccc23)CN1C(=O)[C@@H](NC(=O)OC(C)(C)C)C(C)(C)C)C(=O)NNC(=O)c1ccccc1,–,–,> 10000 nM,1600 nM,–
C=C[C@@H]1C[C@]1(NC(=O)[C@@H]1C[C@@H](Oc2cc(-c3ccccc3)nc3cc(OC)ccc23)CN1C(=O)[C@@H](NC(=O)OC(C)(C)C)C(C)(C)C)C(=O)NO,–,–,3800 nM,425 nM,–
C=C[C@@H]1C[C@]1(NC(=O)[C@@H]1C[C@@H](Oc2cc(-c3ccccc3)nc3cc(OC)ccc23)CN1C(=O)[C@@H](NC(=O)OC(C)(C)C)C(C)(C)C)c1nnc(-c2ccccc2)o1,–,–,> 10000 nM,2200 nM,–
C=C[C@@H]1C[C@]1(NC(=O)[C@@H]1C[C@@H](Oc2cc(-c3ccccc3)nc3cc(OC)ccc23)CN1C(=O)[C@@H](NC(=O)OC(C)(C)C)C(C)(C)C)C(=O)NCC(F)(F)F,734 nM,71 nM,> 2000 nM,1690 nM,349 nM
C=C[C@@H]1C[C@]1(NC(=O)[C@@H]1C[C@@H](Oc2cc(-c3ccccc3)nc3cc(OC)ccc23)CN1C(=O)[C@@H](NC(=O)OC(C)(C)C)C(C)(C)C)C(=O)NNC(=O)Cc1ccccc1,–,–,> 10000 nM,880 nM,–

# The next compounds have a lower EC50 (Hepatitis C virus) than those just listed; values first:
Ki [1],Ki [2],EC50 (Hepatitis C virus),Ki [3],Ki [4],Structure (SMILES)
10.8 nM,0.14 nM,1200 nM,6 nM,0.51 nM,C=C[C@@H]1C[C@]1(NC(=O)[C@@H]1C[C@@H](Oc2cc(-c3ccccc3)nc3cc(OC)ccc23)CN1C(=O)[C@@H](NC(=O)OC(C)(C)C)C(C)(C)C)C(=O)NC#N
8.7 nM,0.12 nM,140 nM,20 nM,0.68 nM,C=C[C@@H]1C[C@]1(NC(=O)[C@@H]1C[C@@H](Oc2cc(-c3ccccc3)nc3cc(OC)ccc23)CN1C(=O)[C@@H](NC(=O)OC(C)(C)C)C(C)(C)C)C(=O)O
0.39 nM,0.006 nM,6 nM,0.22 nM,0.056 nM,C=C[C@@H]1C[C@]1(NC(=O)[C@@H]1C[C@@H](Oc2cc(-c3ccccc3)nc3cc(OC)ccc23)CN1C(=O)[C@@H](NC(=O)OC(C)(C)C)C(C)(C)C)C(=O)NS(=O)(=O)c1ccc(C)cc1
–,–,6 nM,0.34 nM,–,C=C[C@@H]1C[C@]1(NC(=O)[C@@H]1C[C@@H](Oc2cc(-c3ccccc3)nc3cc(OC)ccc23)CN1C(=O)[C@@H](NC(=O)OC(C)(C)C)C(C)(C)C)C(=O)NS(=O)(=O)c1ccccc1
–,–,0.9 nM,0.058 nM,–,C=C[C@@H]1C[C@]1(NC(=O)[C@@H]1C[C@@H](Oc2cc(-c3ccccc3)nc3cc(OC)ccc23)CN1C(=O)[C@@H](NC(=O)OC(C)(C)C)C(C)(C)C)C(=O)NS(=O)(=O)C1CC1
